Assay results: patent US20220370416A1, “COMPOUNDS AND METHODS FOR TARGETED DEGRADATION OF KRAS” (Arvinas Operations, Inc., priority 2020, published 2022)

What was measured:
HiBit-KRAS^G12C [1] = biological target: T1, HiBit-KRAS^G12C (Homo sapiens, UniProt P01116, G12C); test: HiBit degradation assay in MiaPaCa-2 HiBit-KRas^G12C cells; type: cell-based; details: 0.5% DMSO, 24 hours; for Dmax: MIA PaCa-2, MiaPaCa-2 HiBit-KRas^G12C cells, read-out: KRas^G12C-HiBiT (MiaPaCa; 0.5% DMSO) DMax; for Dmax / KRas^G12C-HiBiT (MiaPaCa; 0.5% DMSO) DMax: maximum degradation; for DC50: read-out: KRas^G12C-HiBiT (MiaPaCa; 0.5% DMSO) IC50; for DC50 / KRas^G12C-HiBiT (MiaPaCa; 0.5% DMSO) DMax: MiaPaCa-2 HiBit-KRas^G12C cells
T1 sequence (P01116 1-186 isoform P01116-2 G12C limits assumed): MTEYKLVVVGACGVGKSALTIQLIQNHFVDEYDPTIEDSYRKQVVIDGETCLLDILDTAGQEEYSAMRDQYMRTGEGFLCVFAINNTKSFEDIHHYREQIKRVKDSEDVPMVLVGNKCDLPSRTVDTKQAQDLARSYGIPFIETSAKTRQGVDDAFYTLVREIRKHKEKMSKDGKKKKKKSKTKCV
Description: Reagents. SW1573 (CRL-2170) and MiaPaCa-2 (CRL-1420) cells were purchased from ATCC. Both cell lines are […] for the G12C mutation in KRAS. SW1573 cells were cultured in DMEM+F12+Glutamax (+Sodium Bicarbonate, +sodium pyruvate, Thermofisher scientific, #10565) supplemented with 10% FBS (Thermofisher scientific, #2060357) and 1% Antibiotic-Antimycotic (Thermofisher scientific, #15240096). MiaPaCa-2 cells were cultured in DMEM+Glutamax media (Thermofisher scientific, #10566) supplemented with 10% FBS (Thermofisher scientific, #2060357) and 1% Antibiotic-Antimycotic (Thermofisher scientific, #15240096). For degradation assays, 384 well plates were purchased from Corning (Corning® CellBIND® 384-well Flat Clear Bottom Black Polystyrene Microplates, Low Flange, #3770). Gambogic acid was purchased from Selleckchem (#S2448). Alamar blue was purchased from Thermofisher scientific (A50101) and used according to manufacturer instructions. The Nano-Glo® HiBit Lytic Detection System and Nano-Glo® HiBit Blotting System were purchased from Promega (#N3050 and #N2410) and used according to manufacturer instructions.
To create the MiaPaCa-2 HiBit-KRAS^G12C cell line, CRISPR-Cas9 was used to insert the HiBit tag onto the N-terminus of one or more of the four endogenous KRAS^G12C alleles. After knock-in of the tag, individual clones were isolated by single cell dilution and screened for HiBit insertion by PCR. Clones containing the HiBit tag were sequenced and one was identified that contained the desired HiBit-KRAS^G12C sequence at one allele while the remaining three KRAS^G12C alleles were unaffected. This line was used for all subsequent studies.
Either SW1573 HiBit-KRas^G12C or MiaPaCa-2 HiBit-KRas^G12C cells were plated at 9000 cells/well in a 384 well plate (Corning #3770). Exemplary heterobifunctional molecules and positive controls were diluted in the appropriate cell media and applied to the plated cells resulting in a final concentration titration of 10 μM to 20 nM in either 0.1% or 0.5% dimethyl sulfoxide (DMSO). Gambogic acid was used as a positive control for cytotoxicity and titrated from 10 μM to 78 nM. All assays were performed in triplicate. Cells were treated with compounds for 24 hours at 37° C. in an incubator containing 5% CO2. Following treatment, alamar blue was used to determine if any compounds led to a loss in cell viability after 24 hours. The 10× alamar blue reagent was added to a final concentration of 1× as recommended by the manufacturer and cells were returned to the incubator for 4 hours. Plates were then allowed to equilibrate to room temperature and fluorescence was measured using a Perkin-Elmer EnVision. After completion of the fluorescence read, the liquid from each well was removed and the cells were washed with PBS. The Nano-Glo® HiBiT detection reagent was prepared according to the manufacturer's instructions and added to each well after the PBS wash was removed. Following incubation at room temperature for 45 minutes, the luminescence was read using the ultra-sensitive luminescence aperture on the Envision instrument.
Fluorescence values from the alamar blue treatment were normalized to the DMSO only control for each compound titration. We hypothesized that compounds that led to a ≥50% loss in cell viability of the KRAS-independent SW1573 HiBit-KRas^G12C cells were likely generally cytotoxic and loss of HiBit-KRAS^G12C signal from these compounds may be due to lower cell number and not specific KRAS^G12C degradation. These points were therefore excluded from the data analysis for degradation. […]

HiBit-KRAS^G12C [2] = biological target: T1, HiBit-KRAS^G12C; test: HiBit degradation assay in SW1573 HiBit-KRas^G12C cells; type: cell-based; set-up: expressed in transfected cells; host or cells: SW1573 (clone E6), modified pcDNA3.1 vector, TK promoter; details: 0.5% DMSO, 24 hours; for DC50: read-out: KRas^G12C-HiBiT (SW1573; 0.5% DMSO) IC50***; for DC50 / KRas^G12C-HiBiT (SW1573; 0.5% DMSO) Dmax**: SW1573 HiBit-KRas^G12C; for Dmax: SW1573, SW1573 HiBit-KRas^G12C, read-out: KRas^G12C-HiBiT (SW1573; 0.5% DMSO) Dmax**
How it was run: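 HiBit-KRAS G12C degradation was measured after a 24 h compound exposure (titrated 10 μM–20 nM) in engineered SW1573 cells. Lytic HiBit luminescence, expressed relative to DMSO controls, yielded DC50 and Dmax from 4-parameter fits. Concentrations causing ≥50% loss in alamar blue viability were omitted as cytotoxic.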

SMILES	Dmax (HiBit-KRAS^G12C [1]) [%]	DC50 (HiBit-KRAS^G12C [1]) [nM]	DC50 (HiBit-KRAS^G12C [2]) [nM]	KRas^G12C-HiBiT (MiaPaCa; 0.5% DMSO) DMax (HiBit-KRAS^G12C [1])	KRas^G12C-HiBiT (SW1573; 0.5% DMSO) Dmax** (HiBit-KRAS^G12C [2])	Dmax (HiBit-KRAS^G12C [2]) [%]
C=CC(=O)N1CCN(c2nc(OCCN3CCC(COc4cc([C@@H](C(=O)N5C[C@@H](O)C[C@H]5C(=O)N[C@@H](C)c5ccc(-c6scnc6C)cc5)C(C)C)on4)CC3)nc3c(F)c(-c4cc(O)cc5ccccc45)c(Cl)cc23)C[C@@H]1CC#N (atropisomer, axis not shown) [Compound 105, (2S,4S)-1-[(2S)-2-[3-({1-[2-({6-chloro-4-[(3S)-3-(cyanomethyl)-4-(prop-2-enoyl)piperazin-1-yl]-8-fluoro-7-(3-hydroxynaphthalen-1-yl)quinazolin-2-yl}oxy)ethyl]piperidin-4-yl}methoxy)-1,2-oxazol-5-yl]-3-methylbutanoyl]-4-hydroxy-N-[(1S)-1-[4-(4-methyl-1,3-thiazol-5-yl)phenyl]ethyl]pyrrolidine-2-carboxamide]	< 35	< 100	> 1000	–	–	–
C=CC(=O)N1CCN(c2nc(OCCN3CCC(COc4cc([C@H](C(=O)N5C[C@@H](O)C[C@H]5C(=O)N[C@@H](C)c5ccc(-c6scnc6C)cc5)C(C)C)on4)CC3)nc3c(F)c(-c4cc(O)cc5ccccc45)c(Cl)cc23)C[C@@H]1CC#N (atropisomer, axis not shown) [Compound 106, (2S,4S)-1-[(2R)-2-[3-({1-[2-({6-chloro-4-[(3S)-3-(cyanomethyl)-4-(prop-2-enoyl)piperazin-1-yl]-8-fluoro-7-(3-hydroxynaphthalen-1-yl)quinazolin-2-yl}oxy)ethyl]piperidin-4-yl}methoxy)-1,2-oxazol-5-yl]-3-methylbutanoyl]-4-hydroxy-N-[(1S)-1-[4-(4-methyl-1,3-thiazol-5-yl)phenyl]ethyl]pyrrolidine-2-carboxamide]	< 35	< 100	> 1000	–	–	–
C=CC(=O)N1CCN(c2nc(OCCN3CCC4(CC3)CN(c3cc([C@H](C(=O)N5C[C@H](O)C[C@H]5C(=O)N[C@@H](C)c5ccc(-c6scnc6C)cc5)C(C)C)on3)C4)nc3c(F)c(-c4cc(O)cc5ccccc45)c(Cl)cc23)C[C@@H]1CC#N (atropisomer, axis not shown) [Compound 107, (2S,4R)-1-[(2R)-2-(3-{7-[2-({6-chloro-4-[(3S)-3-(cyanomethyl)-4-(prop-2-enoyl)piperazin-1-yl]-8-fluoro-7-(3-hydroxynaphthalen-1-yl)quinazolin-2-yl}oxy)ethyl]-2,7-diazaspiro[3.5]nonan-2-yl}-1,2-oxazol-5-yl)-3-methylbutanoyl]-4-hydroxy-N-[(1S)-1-[4-(4-methyl-1,3-thiazol-5-yl)phenyl]ethyl]pyrrolidine-2-carboxamide]	–	< 100	< 100	B (35 < B < 70)	B (35 < B < 70)	–
C=CC(=O)N1CCN(c2nc(OCCN3CCC4(CC3)CN(c3cc([C@@H](C(=O)N5C[C@H](O)C[C@H]5C(=O)N[C@@H](C)c5ccc(-c6scnc6C)cc5)C(C)C)on3)C4)nc3c(F)c(-c4cc(O)cc5ccccc45)c(Cl)cc23)C[C@@H]1CC#N (atropisomer, axis not shown) [Compound 108, (2S,4R)-1-[(2S)-2-(3-{7-[2-({6-chloro-4-[(3S)-3-(cyanomethyl)-4-(prop-2-enoyl)piperazin-1-yl]-8-fluoro-7-(3-hydroxynaphthalen-1-yl)quinazolin-2-yl}oxy)ethyl]-2,7-diazaspiro[3.5]nonan-2-yl}-1,2-oxazol-5-yl)-3-methylbutanoyl]-4-hydroxy-N-[(1S)-1-[4-(4-methyl-1,3-thiazol-5-yl)phenyl]ethyl]pyrrolidine-2-carboxamide]	< 35	100 to 1000	> 1000	–	–	–
C=C(F)C(=O)N1CCN(c2nc(OCCN3CCC4(CC3)CN(c3cc([C@H](C(=O)N5C[C@H](O)C[C@H]5C(=O)N[C@@H](C)c5ccc(-c6scnc6C)cc5)C(C)C)on3)C4)nc3c(F)c(-c4cc(O)cc5ccccc45)c(Cl)cc23)C[C@@H]1CC#N (atropisomer, axis not shown) [Compound 109, (2S,4R)-1-[(2R)-2-(3-{7-[2-({6-chloro-4-[(3S)-3-(cyanomethyl)-4-(2-fluoroprop-2-enoyl)piperazin-1-yl]-8-fluoro-7-(3-hydroxynaphthalen-1-yl)quinazolin-2-yl}oxy)ethyl]-2,7-diazaspiro[3.5]nonan-2-yl}-1,2-oxazol-5-yl)-3-methylbutanoyl]-4-hydroxy-N-[(1S)-1-[4-(4-methyl-1,3-thiazol-5-yl)phenyl]ethyl]pyrrolidine-2-carboxamide]	> 70	< 100	< 100	–	–	35 to 70
C=CC(=O)N1CCN(c2nc(OCCN3CCC(COCC(=O)N[C@H](C(=O)N4C[C@H](O)C[C@H]4C(=O)N[C@@H](C)c4ccc(-c5scnc5C)cc4)C(C)(C)C)CC3)nc3c(F)c(-c4cc(O)cc5ccccc45)c(Cl)cc23)C[C@@H]1CC#N (atropisomer, axis not shown) [Compound 110, (2S,4R)-1-[(2S)-2-[2-({1-[2-({6-chloro-4-[(3S)-3-(cyanomethyl)-4-(prop-2-enoyl)piperazin-1-yl]-8-fluoro-7-(3-hydroxynaphthalen-1-yl)quinazolin-2-yl}oxy)ethyl]piperidin-4-yl}methoxy)acetamido]-3,3-dimethylbutanoyl]-4-hydroxy-N-[(1S)-1-[4-(4-methyl-1,3-thiazol-5-yl)phenyl]ethyl]pyrrolidine-2-carboxamide]	–	–	–	C (C ≤ 35)	C (C ≤ 35)	–
C=C(F)C(=O)N1CCN(c2nc(OCCN3CCC4(CC3)CN(c3cc([C@H](C(=O)N5C[C@H](O)C[C@H]5C(=O)N[C@@H](C)c5ccc(-c6ccnn6C)cc5)C(C)C)on3)C4)nc3c(F)c(-c4cc(O)cc5ccccc45)c(Cl)cc23)C[C@@H]1CC#N (atropisomer, axis not shown) [Compound 112, (2S,4R)-1-[(2R)-2-(3-{7-[2-({6-chloro-4-[(3S)-3-(cyanomethyl)-4-(2-fluoroprop-2-enoyl)piperazin-1-yl]-8-fluoro-7-(3-hydroxynaphthalen-1-yl)quinazolin-2-yl}oxy)ethyl]-2,7-diazaspiro[3.5]nonan-2-yl}-1,2-oxazol-5-yl)-3-methylbutanoyl]-4-hydroxy-N-[(1S)-1-[4-(1-methyl-1H-pyrazol-5-yl)phenyl]ethyl]pyrrolidine-2-carboxamide]	> 70	100 to 1000	100 to 1000	–	–	> 70
